Patent US5213788A, “Physically and chemically stabilized polyatomic clusters for magnetic resonance image and spectral enhancement” (priority 1991, dated 1993)

Columns and labels:
VX2 carcinomas = experiment: Histochemical platinum stain of tumor tissues after intraarterial perfusion; format: in vivo, rabbit; details: selective arterial perfusion
Description: At 5 to 15 minutes postinjection, the animals were sacrificed, their lungs removed and fixed with intratracheal buffered formalin, tissue sections cut at 8 microns thickness, and the sections stained using a newly devised method for platinum which comprises a microwave-augmented iron-type stain (60° C.×2 minute×3 cycles) using a 1:1 mixture of 2% ferriferrocyanide reagent and 4% HCl. […] To those skilled in the art, additional evidence for selective lung localization, was obtained by injecting intravenously, analogous (subembolizing) heparincoated small microparticles containing encapsulated amphotericin B, into identical mice, homogenizing the lungs, and documenting an 8-fold increment in drug levels over native amphotericin B (deoxycholate formulation, Fungizone; Squibb) recovered at 1 to 3 hours postinjection.
(§1) Additional documentation for maintenance of the cisplatin-carrier paired-ion complex in vivo was obtained as follows. […] Animals were sacrificed at 15 minutes, and the tumors and organs were homogenized extracted and analyzed by atomic absorption for tissue platinum concentrations, as shown in Table 1.
Additionally, histochemical platinum stains were performed on the tumor tissues, as described in Example 7.
Microinhomogeneities of tissue heating represent a major problem in hyperthermia treatment of tumors. […]

red cells = details: cited from earlier work
[1] = tested on: VX2 carcinomas of the right hind limb; experiment: Tissue platinum content by atomic absorption after selective intraarterial perfusion; format: in vivo; details: 15 mg cisplatin per rabbit intraarterially over 15 minutes
Description: as §1

[2] = Complexation of exogenously added calcium ions (ionized calcium analyzer); format: binding
CBA/J mice = experiment: Tetany / toxicity following intravenous injection; format: in vivo; details: 10 mg/25 gm body weight
[3] = usually; cited from earlier work
[4] = tested on: BRO-strain human malignant melanomas; experiment: MR imaging of human malignant melanoma xenografts; format: in vivo, human tumor in Swiss nude mice
Description: The strong paramagnetic metal ion, gadolinium (Gd^+3), was chelated stoichiometrically to DTPA-Dextran 70 polymer, whose preparation is described in Example 1, paragraph 2 (improved formulation). Swiss nude mice were inoculated with BRO-strain human malignant melanomas, and these were allowed to grow to a 1-1.5 cm diameter. Moderately T1-weighted MR imaging (TR=500 msec, TE=40 msec) was performed in a standard Diasonics™ medical imager and a 30-cm RF head coil, before and after intravenous injection of equivalent doses of Gd-DTPA-Dextran-70 (0.03 mmol Gd/kg) or Gd-DTPA (0.1 mmol/kg) contrast agent. […] It will also be recognized that much lower doses of the stronger superparamagnetics (including doses below about 0.01 mmol/kg, versus 0.1 mmol/kg for Gd-DTPA) can be used to obtain effective MRI contrast enhancement; and that much faster, more heavily T1-weighted pulse sequences can be implemented in the presence of intramolecularly superparamagnetic polyatomic complex-carrier polymer conjugates or paired-ion complexes.

tumor interstitium = details: in vivo; cited from earlier work
[5] = small-molecular contrast agents; cited from earlier work
[6] = Blood and total body clearance; format: in vivo
malignant breast tumor = details: by 30 minutes postcontrast; cited from earlier work

Q: For N.N.[Cl][Pt][Cl] [cisplatin, cis-dichlorodiamine platinum], which “Intracellular tumor-cell platinum staining” value (VX2 carcinomas) is on record?
A: Its value is “aggregated staining was absent”.

Q: For [O]=[51Cr](=[O])([O-])[O-] [^51 Chromium, ^51 CrO4^-2], which “Average rate of elution from red cells” value (red cells) is on record?
A: The value was 0.93 % per day.

Q: Which “Platinum content, Kidney” value [1] does the source give for “Cisplatin-DTPA-Dextran (70,000 MW) [DTPA-dextran cisplatin]” here?
A: The value was 2.92 ng/mg of tissue, wet weight.

Q: And the “Platinum content, Liver” value [1]?
A: The value was 3.47 ng/mg of tissue, wet weight.

Q: What about the “Platinum content, Blood” value ([1]; Ipsilateral) of the same molecule?
A: The value was 2.14 ng/mg of tissue, wet weight.

Q: What about the “Platinum content, Muscle” value ([1]; Ipsilateral) of the same molecule?
A: Its value is 0.29 ng/mg of tissue, wet weight.

Q: What about the “Platinum content, Tumor” value ([1]; Ipsilateral) of the same molecule?
A: The value was 10.81 ng/mg of tissue, wet weight.

Q: And the “Complexation of exogenously added calcium ions by the DTPA groups” value [2]?
A: The value was “reduction in the complexation of exogenously added calcium ions”.

Q: What about the “Tetany / toxicity following intravenous injection” value (CBA/J mice) of the same molecule?
A: The value was “elimination of tetany”.

Q: Which Retained fraction [3] does the source give for “gadolinium diethylenetriamine pentaacetic acid [Gd-DTPA]” here?
A: Its Retained fraction is “less than 0.5%”.

Q: What about the “Fading of tumor enhancement” value ([4]; by one hour, 0.1 mmol/kg) of the same molecule?
A: Its value is “completely faded”.

Q: And the “Time to begin to optimally enhance the tumors” value ([4]; intravenous, Gd-DTPA-dextran 0.03 mmol Gd/kg, Gd-DTPA 0.1 mmol/kg)?
A: Its value is 10 min.

Q: What about the “Retention in tumor interstitium” value (tumor interstitium) of the same molecule?
A: The value was 10 to 45 min.

Q: And the “Initial biodistribution, share of total body water” value [5]?
A: The value was “ca. 35%”.

Q: And the “Blood clearance t1/2” value [6]?
A: Its value is 20 min.

Q: For “gadolinium diethylenetriamine pentaacetic acid dimeglumine [Gd-DTPA dimeglumine]”, which “Tumor fading, in words” value (malignant breast tumor) is on record?
A: The value was “almost complete fading (tumor clearance)”.
